Measurements as given in patent US7179817B2, “Carboxylic acid derivatives and drugs containing the same as the active ingredient” (ONO Pharmaceutical Co., Ltd., priority 2001, dated 2007).
Structures can show the parent of a compound that is named as a salt.

Target: T1, human EDG-1 (Homo sapiens, UniProt P21453)
T1 construct: expressed in transfected cells; host or cells: CHO (Chinese Hamster Ovary) cells, cultured under Blasticidin selection
Experiment: Assessment of an agonistic action by monitoring the intracellular calcium ion
Format: cell-based
Settings: human EDG-1 gene over expression CHO cells; Fura2 intracellular Ca2+ increase; Concentration of Half-100 nM S1P Ca2+ release
Method: (1) Assessment of an Agonistic Action by Monitoring the Intracellular Calcium Ion
The assessment of an agonistic action for the receptor was carried out using the human EDG-1 gene over expression cells (Chinese Hamster Ovary, CHO). EDG-1 expression cells were cultured with Ham's F12 (GIBCO BRL, No. 11765-047) medium containing 10% FBS, Penicillin/Streptomycin and Blasticidin (5 μg/mL). First, in order to load Fura2-AM (Dojindo, No. 348-05831) in the cells, the cells were incubated by 5 μM Fura2-AM solution (Ham's F12 medium containing 10% FBS, 20 mM HEPES pH7.4, 2.5 mM Probenecid (Sigma, catalog No.P-8761)) at 37° C. for 60 min. Next, the cells were washed once by Hanks solution containing 20 mM HEPES pH7.4, 2.5 mM Probenecid and soaked in the Hanks solution until assay.
The plate was set on the fluorescence drug screening system (Hamamatsu photonics FDSS-2000). After measurement of the background signal for […], the solution of the assay compound was added. The test compounds were added at the final concentration range of between 0.1 nM and 10 μM as the final dimethyl sulfoxide (DMSO) concentration made to 1/1000 of the original solution. Fura2-Ca^2+ fluorescence excited at 340 nm and 380 nm was measured every 3 seconds at emission wavelength 500 nm. Intracellular Ca^2+ concentration was assessed with fluorescent ratio of excitation wavelength 340 nm and 380 nm. Agonistic activity was calculated as below, that is, the control value (A) was obtained by measuring the response of 100 nM S1P (BIOMOL:M9076) after adding DMSO to the well for the test compounds, and (A) was compared with the value (B) which is the difference of fluorescent ratio obtained by measuring response between the pre and post of test compounds added. Rate of intracellular Ca^2+ increase (%) was calculated as following equation. rate of increase (%)=(B/A)×100
Moreover, rate of increase was calculated at each concentration and EC50 (Concentration of Half—100 nM S1P Ca^2+ release) of each compound was calculated setting the maximal concentration of the compound giving the response corresponding to that of S1P at the concentration of 100 nM.

T1 sequence (P21453 whole entry): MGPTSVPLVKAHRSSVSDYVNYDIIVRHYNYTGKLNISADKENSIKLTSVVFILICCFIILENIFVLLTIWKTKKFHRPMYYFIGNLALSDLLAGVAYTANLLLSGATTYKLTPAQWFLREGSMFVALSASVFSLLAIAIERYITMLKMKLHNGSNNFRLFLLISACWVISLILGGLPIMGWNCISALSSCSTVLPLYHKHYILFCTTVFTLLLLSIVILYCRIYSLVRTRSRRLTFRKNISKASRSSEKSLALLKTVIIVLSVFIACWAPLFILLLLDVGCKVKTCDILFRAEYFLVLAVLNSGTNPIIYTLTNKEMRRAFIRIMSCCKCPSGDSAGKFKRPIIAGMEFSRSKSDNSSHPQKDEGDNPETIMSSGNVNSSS

EC50	Structure (SMILES)
9 nM	O=C(CCc1ccc(OCCCCCc2ccccc2)cc1)Nc1ccc(Cl)c(C(=O)O)c1 [Example 2(1), 2-chloro-5-[3-(4-(5-phenylpentyloxy)phenyl)propanoylamino]benzoic acid]
1.4 nM	O=C(CCc1ccc(OCCCCCc2ccccc2)cc1)Nc1ccc(C(=O)O)c(C(=O)O)c1 [Example 2(3), 2-carboxy-5-[3-(4-(5-phenylpentyloxy)phenyl)propanoylamino]benzoic acid]
7.3 nM	O=C(CCc1ccc(OCCCCCc2ccccc2)cc1)Nc1cc(Cl)c(Cl)c(C(=O)O)c1 [Example 9(6), 2,3-dichloro-5-[3-(4-(5-phenylpentyloxy)phenyl)propanoylamino]benzoic acid]
4.5 nM	O=C(O)c1cncc(C(=O)NCCc2ccc(OCCCCCc3ccccc3)cc2)c1 [Example 16(3), 5-[2-(4-(5-phenylpentyloxy)phenyl)ethylaminocarbonyl]pyridine-3-carboxylic acid]
8.3 nM	O=C(NCCc1ccc(OCCCCCc2ccccc2)cc1)c1ccc(Cl)c(C(=O)O)c1 [Example 16, 2-chloro-5-[2-(4-(5-phenylpentyloxy)phenyl)ethylaminocarbonyl]benzoic acid]
1.5 nM	O=C(NCCc1ccc(OCCCCCc2ccccc2)cc1)c1ccc(C(=O)O)c(C(=O)O)c1 [Example 19, 2-carboxy-5-[2-(4-(5-phenylpentyloxy)phenyl)ethylaminocarbonyl]benzoic acid]
25 nM	O=C(O)CNC(=O)CCc1ccc(CCCCCCc2ccccc2)cc1 [Example 28, 2-[3-(4-(6-phenylhexyl)phenyl)propanoylamino]acetic acid]
30 nM	O=C(O)CCNCCc1ccc(OCCCCCc2ccccc2)cc1 [Example 32, 3-[2-(4-(5-phenylpentyloxy)phenyl)ethylamino]propanoic acid hydrochloride]
